Results published in publication PMC7339578, “Multiple circulating alkaloids and saponins from intravenous Kang-Ai injection inhibit human cytochrome P450 and UDP-glucuronosyltransferase isozymes: potential drug–drug interactions” (Chinese Medicine, 2020).
Like-named read-outs stand apart in the source and are kept apart here.

How the values were obtained:
[1] = target: T1, CYP2A6 (Homo sapiens, UniProt P11509); assay: Inhibition of recombinant CYP2A6 (probe coumarin); format: in vitro ADME
T1 sequence (P11509 1-494): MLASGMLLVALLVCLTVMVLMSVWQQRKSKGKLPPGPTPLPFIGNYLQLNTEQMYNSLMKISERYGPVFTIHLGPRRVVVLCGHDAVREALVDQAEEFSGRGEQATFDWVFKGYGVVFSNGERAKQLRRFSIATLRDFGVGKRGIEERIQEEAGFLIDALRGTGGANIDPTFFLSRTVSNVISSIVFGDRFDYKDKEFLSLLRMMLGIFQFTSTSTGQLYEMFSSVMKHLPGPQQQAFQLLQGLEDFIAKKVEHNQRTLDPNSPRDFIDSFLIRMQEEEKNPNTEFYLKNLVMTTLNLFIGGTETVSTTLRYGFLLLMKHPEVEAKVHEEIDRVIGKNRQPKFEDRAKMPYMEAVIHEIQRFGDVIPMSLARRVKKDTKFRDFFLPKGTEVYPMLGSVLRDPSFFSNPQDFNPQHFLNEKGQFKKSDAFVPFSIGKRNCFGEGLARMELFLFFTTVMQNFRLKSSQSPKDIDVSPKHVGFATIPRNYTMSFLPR
Protocol: (§1) In this study, phenacetin (100 μM), coumarin (100 μM), bupropion (100 μM), paclitaxel (60 μM), tolbutamide (200 μM), mephenytoin (100 μM), chlorzoxazone (200 μM) and nifedipine (40 μM) have been used as the probe substrates for CYP1A2, 2A6, 2B6, 2C8, 2C9, 2C19, 2E1 and 3A4, respectively.

[2] = target: T2, UGT2B7 (Homo sapiens, UniProt P16662); assay: Inhibition of expressed UGT2B7 (probe 4-MU); format: in vitro ADME
T2 sequence (P16662 24-529): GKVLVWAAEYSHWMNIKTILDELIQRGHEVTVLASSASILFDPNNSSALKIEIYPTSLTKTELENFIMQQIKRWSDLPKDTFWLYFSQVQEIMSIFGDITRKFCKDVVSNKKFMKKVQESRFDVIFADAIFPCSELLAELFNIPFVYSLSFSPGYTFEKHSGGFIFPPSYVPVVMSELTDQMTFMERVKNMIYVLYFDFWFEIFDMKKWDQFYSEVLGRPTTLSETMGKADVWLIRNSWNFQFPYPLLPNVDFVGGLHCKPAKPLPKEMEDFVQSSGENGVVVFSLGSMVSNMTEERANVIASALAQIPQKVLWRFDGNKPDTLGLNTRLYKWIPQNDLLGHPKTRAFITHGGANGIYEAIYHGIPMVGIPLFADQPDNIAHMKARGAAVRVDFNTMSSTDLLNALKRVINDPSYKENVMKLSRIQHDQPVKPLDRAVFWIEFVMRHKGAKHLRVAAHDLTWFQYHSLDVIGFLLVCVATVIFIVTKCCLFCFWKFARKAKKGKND
Protocol: After centrifugation (13,800g, 10 min), the supernatant (8 μL) was obtained for determination by UHPLC system.
Similarly, β-estradiol (60 μM), propofol (40 μM) and 4-MU (350 μM) were typically used as the substrates for UGT1A1, 1A9 and 2B7, respectively. After optimization of incubation conditions (Additional file 1: Fig. S2), the protein concentrations for UGT1A1, 1A9, and 2B7 were 0.125, 0.05, and 0.05 mg/mL, respectively.

[3] = target: CYP2E1 (Homo sapiens, UniProt P05181); assay: Inhibition of recombinant CYP2E1 (probe chlorzoxazone)
Protocol: Phase I incubation system (100 μL) contained Tris–HCl buffer (50 mM, pH = 7.4), MgCl2 (5 mM), each CYP isozyme, specific substrates, circulating compounds and NADPH (1 mM) as prescribed previously. After incubation (37 °C, 60 min), the reaction was terminated by ice-cold acetonitrile (100 μL), following by centrifugation at 13,800g for 10 min. The supernatant (8 μL) was acquired for ultra-high-performance liquid chromatography (UHPLC) system (Waters, Manchester, UK) analysis.
After optimization of incubation conditions (Additional file 1: Fig. S1), the substrates were incubated with each CYP isozyme at different protein concentrations (0.05 mg/mL for CYP1A2 and 3A4; 0.1 mg/mL for CYP2A6, 2B6, 2C8, 2C9, 2C19 and 2E1) in the absence (control) and presence of different mixture or herbal compounds (Kang-Ai injection and samples that Kang-Ai injection was diluted 10 times; 1, 10, and 100 μM for matrine and oxymatrine; 0.1, 1, 10 and 100 μM for astragalosides and ginsenosides).
The half-inhibition concentration (IC50) values were determined by non-linear regression analysis. […] The inhibition mechanism towards corresponding CYP and UGT isoforms were further explored.
The inhibition constant (Ki) values were obtained by multiple concentrations of substrates in the absence or presence of multiple concentrations of herbal compounds as described previously. […] (1)–(3), respectively. The model with the smallest Akaike information criterion (AIC) and Schwartz information criterion (SC) values was considered as the best model, following the obtained appropriate Ki values. Model fitting and parameter estimation were performed using Graphpad Prism V5 software (SanDiego, CA).

[4] = target: T3, CYP1A2 (Homo sapiens, UniProt P05177); assay: Inhibition of recombinant CYP1A2 (probe phenacetin); format: in vitro ADME
T3 construct: purchased Corning Biosciences 456203
T3 sequence (P05177 1-516): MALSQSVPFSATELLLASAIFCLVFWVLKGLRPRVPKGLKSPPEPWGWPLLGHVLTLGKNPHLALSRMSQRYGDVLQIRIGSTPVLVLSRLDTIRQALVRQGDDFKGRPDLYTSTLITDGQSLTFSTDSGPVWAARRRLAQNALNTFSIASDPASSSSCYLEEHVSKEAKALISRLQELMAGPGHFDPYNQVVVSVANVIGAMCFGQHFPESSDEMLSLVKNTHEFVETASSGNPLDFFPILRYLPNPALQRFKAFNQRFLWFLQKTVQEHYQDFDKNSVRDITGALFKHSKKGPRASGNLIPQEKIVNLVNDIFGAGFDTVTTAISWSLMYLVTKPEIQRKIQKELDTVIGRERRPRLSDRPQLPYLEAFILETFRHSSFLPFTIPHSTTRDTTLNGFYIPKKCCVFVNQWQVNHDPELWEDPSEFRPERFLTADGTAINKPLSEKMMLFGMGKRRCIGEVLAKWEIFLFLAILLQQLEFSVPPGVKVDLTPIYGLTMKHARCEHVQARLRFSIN
Protocol: as §1

[5] = recombinant isozyme, mean ± SD of triplicate, unit not given (IC50 classes in μM), read-out: IC50 towards CYP2A6
[6] = recombinant isozyme, mean ± SD of triplicate, unit not given (IC50 classes in μM), read-out: IC50 towards UGT2B7
[7] = recombinant isozyme, mean ± SD of triplicate, unit not given (IC50 classes in μM), read-out: IC50 towards CYP1A2

Chain of CYP2E1 (P05181 whole entry): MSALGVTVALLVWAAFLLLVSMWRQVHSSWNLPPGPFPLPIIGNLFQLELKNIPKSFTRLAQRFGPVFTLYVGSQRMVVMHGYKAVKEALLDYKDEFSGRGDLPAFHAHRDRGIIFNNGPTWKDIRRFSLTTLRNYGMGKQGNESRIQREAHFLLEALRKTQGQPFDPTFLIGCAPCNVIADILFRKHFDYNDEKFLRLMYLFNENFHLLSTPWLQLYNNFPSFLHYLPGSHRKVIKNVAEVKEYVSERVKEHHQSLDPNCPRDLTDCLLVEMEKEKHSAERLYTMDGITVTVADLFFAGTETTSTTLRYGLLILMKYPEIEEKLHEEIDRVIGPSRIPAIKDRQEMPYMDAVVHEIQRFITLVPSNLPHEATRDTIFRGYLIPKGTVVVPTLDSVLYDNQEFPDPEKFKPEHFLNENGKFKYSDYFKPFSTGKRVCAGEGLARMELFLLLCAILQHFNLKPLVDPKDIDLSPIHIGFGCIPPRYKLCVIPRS

Row | SMILES | IC50 [1, 5] [µM] | IC50 [2, 6] [µM] | IC50 [3] [µM] | IC50 [4, 7] [µM] | IC50 ([3]; read-out: IC50 towards CYP2E1, recombinant isozyme, mean ± SD of triplicate, unit not given (IC50 classes in μM)) [µM] | IC50 [1] [µM] | IC50 [2] [µM] | IC50 [4] [µM]
1 | CC(C)=CCC[C@](C)(O[C@@H]1O[C@H](CO)[C@@H](O)[C@H](O)[C@H]1O)[C@H]1CC[C@]2(C)[C@@H]1[C@H](O)C[C@@H]1[C@@]3(C)CC[C@H](O[C@@H]4O[C@H](CO)[C@@H](O)[C@H](O)[C@H]4O[C@@H]4O[C@H](CO)[C@@H](O)[C@H](O)[C@H]4O)C(C)(C)[C@@H]3CC[C@]12C [Compound D2, Ginsenoside Rd] | > 100 | > 100 | > 100 | > 100 |  |  |  | 
2 | CC(C)=CCC[C@](C)(O)[C@H]1CC[C@]2(C)[C@@H]1[C@H](O)C[C@@H]1[C@@]3(C)CC[C@H](O)C(C)(C)[C@@H]3[C@@H](O[C@@H]3O[C@H](CO)[C@@H](O)[C@H](O)[C@H]3O[C@@H]3O[C@H](CO)[C@@H](O)[C@H](O)[C@H]3O)C[C@]12C [Compound C7, Ginsenoside Rf] | > 100 | > 100 | > 100 | > 100 |  |  |  | 
3 | CC(C)(O)[C@@H]1CC[C@](C)([C@H]2[C@@H](O)C[C@@]3(C)[C@@H]4C[C@H](O[C@@H]5O[C@H](CO)[C@@H](O)[C@H](O)[C@H]5O)[C@H]5C(C)(C)[C@@H](O[C@@H]6OC[C@@H](O)[C@H](O)[C@H]6O)CC[C@@]56C[C@@]46CC[C@]23C)O1 [Compound B2, Astragaloside IV] | > 100 | > 100 |  | > 100 | > 100 |  |  | 
4 | O=C1CCC[C@@H]2[C@H]3CCCN4CCC[C@@H](CN12)[C@@H]34 [Compound A1, Matrine] |  |  | > 100 |  |  | > 100 | > 100 | > 100
5 | CC(C)=CCC[C@](C)(O[C@@H]1O[C@H](CO)[C@@H](O)[C@H](O)[C@H]1O)[C@H]1CC[C@]2(C)[C@@H]1[C@H](O)C[C@@H]1[C@@]3(C)CC[C@H](O)C(C)(C)[C@@H]3[C@@H](O[C@@H]3O[C@H](CO)[C@@H](O)[C@H](O)[C@H]3O)C[C@]12C [Compound C6, Ginsenoside Rg1] | > 100 | > 100 | > 100 | > 100 |  |  |  | 
6 | CC(C)=CCC[C@](C)(O[C@@H]1O[C@H](CO[C@@H]2O[C@H](CO)[C@@H](O)[C@H](O)[C@H]2O)[C@@H](O)[C@H](O)[C@H]1O)[C@H]1CC[C@]2(C)[C@@H]1[C@H](O)C[C@@H]1[C@@]3(C)CC[C@H](O[C@@H]4O[C@H](CO)[C@@H](O)[C@H](O)[C@H]4O[C@@H]4O[C@H](CO)[C@@H](O)[C@H](O)[C@H]4O)C(C)(C)[C@@H]3CC[C@]12C [Compound D5, Ginsenoside Rb1] | > 100 | > 100 | > 100 | > 100 |  |  |  | 
7 | O=C1CCC[C@@H]2[C@H]3CCC[N+]4([O-])CCC[C@@H](CN12)[C@@H]34 (stereo partly drawn) [Compound A3, Oxymatrine] |  |  | > 100 |  |  | > 100 | > 100 | > 100
8 | CC(C)=CCC[C@](C)(O[C@@H]1O[C@H](CO[C@@H]2O[C@@H](CO)[C@H](O)[C@H]2O)[C@@H](O)[C@H](O)[C@H]1O)[C@H]1CC[C@]2(C)[C@@H]1[C@H](O)C[C@@H]1[C@@]3(C)CC[C@H](O[C@@H]4O[C@H](CO)[C@@H](O)[C@H](O)[C@H]4O[C@@H]4O[C@H](CO)[C@@H](O)[C@H](O)[C@H]4O)C(C)(C)[C@@H]3CC[C@]12C [Compound D3, Ginsenoside Rc] | > 100 | > 100 | > 100 | > 100 |  |  |  | 
9 | CC(C)=CCC[C@](C)(O[C@@H]1O[C@H](CO)[C@@H](O)[C@H](O)[C@H]1O)[C@H]1CC[C@]2(C)[C@@H]1[C@H](O)C[C@@H]1[C@@]3(C)CC[C@H](O)C(C)(C)[C@@H]3[C@@H](O[C@@H]3O[C@H](CO)[C@@H](O)[C@H](O)[C@H]3O[C@@H]3O[C@@H](C)[C@H](O)[C@@H](O)[C@H]3O)C[C@]12C [Compound C9, Ginsenoside Re] | > 100 | > 100 | > 100 | > 100 |  |  |  | 
